Ki data for 7 molecules are collected here from US4863946A, “2-[2H-(1,3-dihydroisoindole)alkylene]-4,5-dihydroimidazoles and pharmaceutical compositions thereof” (Beecham Group plc, priority 1985, dated 1989).

As usually defined, the Ki is the dissociation constant of the complex between target and ligand, obtained from inhibition or displacement.

The assay has as its target T1, α2-Adrenoceptor (Homo sapiens, UniProt P08913).
T1 construct: from tissue; host or cells: human platelets (membranes)
T1 sequence (P08913 1-465): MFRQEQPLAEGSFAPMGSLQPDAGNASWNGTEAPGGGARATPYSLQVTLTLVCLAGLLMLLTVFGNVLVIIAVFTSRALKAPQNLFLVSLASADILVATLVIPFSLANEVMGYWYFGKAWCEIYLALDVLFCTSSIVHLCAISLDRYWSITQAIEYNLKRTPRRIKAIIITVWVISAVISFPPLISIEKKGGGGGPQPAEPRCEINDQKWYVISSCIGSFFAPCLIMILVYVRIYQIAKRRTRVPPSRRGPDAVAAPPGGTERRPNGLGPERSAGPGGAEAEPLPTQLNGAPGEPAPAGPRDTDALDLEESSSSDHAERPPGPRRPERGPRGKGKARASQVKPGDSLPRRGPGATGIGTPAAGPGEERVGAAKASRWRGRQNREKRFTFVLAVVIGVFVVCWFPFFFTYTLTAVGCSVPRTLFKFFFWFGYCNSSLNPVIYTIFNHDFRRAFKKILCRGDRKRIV
Kind of assay: α2-Adrenoceptor Binding ([3H] Rauwolscine, human platelet membranes). The note with it: [3H] Rauwolscine 0.5-1.0 nM, 30 minutes at 30° C., read-out: Binding Affinity. Ki. As to the method: (A) α2-Adrenoceptor Binding
Human platelet membranes were incubated with [^3 H] Rauwolscine (0.5-1.0 nM) for 30 minutes at 30° C. with varying concentrates of the drug (0.1-10,000 nM). The binding assay was stopped by filtering and rinsing on GF/B glass fibre filters. Binding Affinity (Ki) was calculated using the Ching Prussoff equation.

Structures can show the parent of a compound that is named as a salt.

As to `c1ccc2c(c1)CN(CC1=NCCN1)C2` [Example 1, 2-[2H-(1,3-Dihydroisoindole)methyl]-4,5-dihydroimidazole], the Ki stood at 5 nM. `Clc1cccc2c1CN(CC1=NCCN1)C2` [Example 2, 2-[2H-(4-Chloro-1,3-dihydroisoindole)methyl]-4,5-dihydroimidazole]: the Ki came to 7 nM. Then `Clc1ccc2c(c1)CN(CC1=NCCN1)C2` [Example 3, 2-[2H-(5-Chloro-1,3-dihydroisoindole)methyl]-4,5-dihydroimidazole], with 13 nM; and `c1ccc2c(c1)CCN(CC1=NCCN1)C2` [Example 4, 2-[(1,2,3,4-Tetrahydroisoquinoline)methyl]-4,5-dihydroimidazole], with 20 nM; and `Fc1ccc2c(c1)CN(CC1=NCCN1)C2` [Example 5, 2-[2H-(5-Fluoro-1,3-dihydroisoindole)methyl]-4,5-dihydroimidazole], with 164 nM. For `COc1ccc2c(c1)CN(CC1=NCCN1)C2` [Example 6, 2-[2H-(5-Methoxy-1,3-dihydroisoindole)methyl]-4,5 dihydroimidazole dihydrochloride], the Ki turned out to be 89 nM. Under `Cc1ccc2c(c1)CN(CC1=NCCN1)C2` [Example 7, 2-[2H-(5-Methyl-1,3-dihydroisoindole)methyl]-4,5-dihydroimidazole] stands 22 nM.
